Laboratory results: US7670782B2, “Screening of compounds for CAT1 transporter activity” (XenoPort, Inc., priority 2005, dated 2010)
Values belong to the molecule of their own block, whether it stands above or below them.

Experiments:
hCAT1 [1] = target: T1, hCAT1 (Homo sapiens, UniProt P30825); experiment: hCAT1 competition uptake assay (inhibition of 3H-arginine uptake into LLCPK-TREx-hCAT1 cells); format: cell-based; conditions: 3H-arginine as substrate; for IC50: LLCPK-TREx-hCAT1 cells induced to express hCAT1, 10 minutes at room temperature
T1 construct: expressed in transfected cells; host or cells: LLCPK-TREx (porcine kidney epithelial) cells, induced with tetracycline and butyrate
Procedure: A modified competition uptake assay was developed to determine the ability of a test compound(s) to inhibit the uptake of radiolabeled substrates into LLCPK-TREx-hCAT1 cells induced to over-express hCAT1. The results are stated as affinities (IC50).
The competition uptake assay was prepared as follows: Compounds were prepared for assay by diluting a 100 mM stock concentration (in DMSO) to the appropriate working concentration. Typically, seven-point dose response curves were prepared starting at a final assay concentration of 3 mM and carrying out three-fold dilutions. These dilutions were prepared by making a working “compound” plate that contained a 2×solution of the desired starting concentration of each test compound in duplicate in row A of a v-bottom microtiter plate. Six 3-fold serial dilutions (from row B to G) were made into the sodium free HBSS assay buffer (60 mg/L KH2PO4 (0.4 mM) (Sigma; P-0662); 0.42 g/L KHCO3 (4.17 mM); (Sigma; P-6037); 1 g/L Glucose ([…]) (Sigma; G-7528); 2.1 g/L MOPS (10 mM) (Sigma; M-1254); 1.05 ml/L MgCl2.(H2O)6 (Sigma; M-1028); 100 mg/L MgSO4.(H2O)7 (Sigma; M-5921); 140 mg/L CaCl2 (1.3 mM)(Sigma; C-5080); 19.1 g/L Choline Chloride (137 mM) (Sigma; C-7527), pH to 7.4 with KOH) with the appropriate amount of DMSO so that the DMSO concentration remained constant at all dilutions. The resulting “compound” plate contained serial dilutions of six compounds in duplicate. The final row (H) of the assay plate was filled with HBSS buffer alone (H1-H6) or 10 mM unlabeled Arginine in HBSS (H7-H12) to measure the total or non-specific uptake, respectively.
^3H-Arginine was diluted into HBSS buffer to a final concentration of 4,000 cpm/μl. Sufficient solution was prepared to allow addition of 25 μl/well (the final concentration was 100,000 cpm/well).
LLCPK-TREx-hCAT1 cells, plated in 96-well plates and treated with 2 mM butyrate and tetracycline (or tet analog (e.g., doxycycline), were removed from the CO2 incubator. Growth media was removed from the cells, and the cells were washed twice in room temperature HBSS (100 μl/well/wash) using a 96-well plate washer (Bio Tek ELX405). Alternatively, cells were washed manually with equivalent volumes using a multichannel pipettor. Immediately before beginning the assay, the final 100 μl wash solution was removed from the cells by aspiration.
Using a 96-well pipettor, 25 μl from the “compound” plate was added to each well of the cell plate. The assay was started by adding 25 μl of the ^3H-Arginine working solution. The plate was incubated at room temperature for 10 minutes. The assay was stopped by washing the cells four times with ice-cold HBSS buffer using a ELX405 plate washer (100 μl buffer/well/wash) having an angled buffer dispenser.
Scintillation fluid (200 μl) (Optiphase Supermix (Perkin Elmer) was added to each well, and the plate was covered with a 96-well adhesive plate cover and placed on a shaker for 20 minutes. The plates were counted on a 96-well plate scintillation counter for 60 sec/well. The data were analyzed using a sigmoidal dose response curve-fitting program (Prism, GraphPad, Inc, San Diego, Calif.; equation: one-site competition).
The competition experiment was performed as described in Example 7. Non-specific uptake was determined by measuring the uptake into cells not induced to express the transporter (“no tet”). […] In control cells, uptake of labeled arginine remained at background levels and was largely unaffected by an excess of unlabeled substrates.

hCAT1 [2] = target: T1, hCAT1; experiment: hCAT1 direct uptake assay (LC-MS-MS, LLCPK-TREx-hCAT1 cells induced vs no tet); format: cell-based; conditions: direct uptake into LLCPK-TREx-hCAT1 cells
Procedure: Four concentrations (bracketing the affinity as measured by competition assays) per compound were routinely tested. Non-specific uptake was determined by measuring the uptake into cells not induced to express the transporter (“no tet”).
Typically, four concentrations bracketing the IC50 were tested. […] The samples were robustly vortexed and centrifuged for 10 minutes at 13,200 rpm to spin down any precipitate. […] Three additional 2-fold dilutions were made in the subsequent rows (B-D or […]) in HBSS.
An internal standard of 50 μM propranolol in 50:50 ethanol:water was also prepared.
The cells were washed twice in room temperature HBSS (100 μl/well/wash) using a 96-well plate washer (Bio Tek ELX405). Alternatively, cells were washed manually with equivalent volumes using a multichannel pipettor. Immediately before the assay was begun, the final 100 μl wash solution was removed from the cells.
After the final wash, as much of the wash buffer as possible was removed by aspirating the wells with a probe that reached the bottom of the wells. (Residual salts from the wash buffer can adversely affect the LC-MS-MS by disrupting the LC method or by suppressing the MS signal.) 150 μl of a 50:50 ethanol:water solution was added to each well to lyse the cells and extract the test compound. The plate was covered and allowed to sit for 20 minutes at room temperature to ensure cell lysis.
120 μl of the cell extract was removed from each well and transferred to a fresh 96-well v-bottom polypropylene plate. This plate was covered with an adherent cover (top seal) and centrifuged for 15 minutes at 5,700 rpm (Allegra 25R centrifuge) at 4° C. to pellet any cell precipitate. 10 μl of the 50 μM propranolol solution was added to each well of a fresh 96-well plate (a plate amenable for sampling in the LC-MS-MS). […] The levels of intracellular compounds were determined by converting the peak area to concentration by extrapolating from the standard curve for each compound. Uptake was expressed as μM/well.

PgP = target: T2, PgP (Homo sapiens, UniProt P08183); experiment: Transwell monolayer efflux assay in MDCK cells transfected with TREx-PgP; format: in vitro ADME; conditions: 2.5 nM 3H-vinblastine, absence and presence of 250 μM verapamil
T2 construct: purchased BD Biosciences; host or cells: baculovirus membranes
Procedure: Transwell monolayer efflux assays can be performed by transfecting MDCK cells with the tetracycline-inducible TREx-PgP expression vector. The cells optionally can be transfected with a nucleic acid encoding the transporter of interest. The transfected cells are seeded on polycarbonate filter membranes in transwell dishes and grown for 3-5 days, yielding a polarized monolayer with tight junctions between cells.

T1 sequence (P30825 whole entry): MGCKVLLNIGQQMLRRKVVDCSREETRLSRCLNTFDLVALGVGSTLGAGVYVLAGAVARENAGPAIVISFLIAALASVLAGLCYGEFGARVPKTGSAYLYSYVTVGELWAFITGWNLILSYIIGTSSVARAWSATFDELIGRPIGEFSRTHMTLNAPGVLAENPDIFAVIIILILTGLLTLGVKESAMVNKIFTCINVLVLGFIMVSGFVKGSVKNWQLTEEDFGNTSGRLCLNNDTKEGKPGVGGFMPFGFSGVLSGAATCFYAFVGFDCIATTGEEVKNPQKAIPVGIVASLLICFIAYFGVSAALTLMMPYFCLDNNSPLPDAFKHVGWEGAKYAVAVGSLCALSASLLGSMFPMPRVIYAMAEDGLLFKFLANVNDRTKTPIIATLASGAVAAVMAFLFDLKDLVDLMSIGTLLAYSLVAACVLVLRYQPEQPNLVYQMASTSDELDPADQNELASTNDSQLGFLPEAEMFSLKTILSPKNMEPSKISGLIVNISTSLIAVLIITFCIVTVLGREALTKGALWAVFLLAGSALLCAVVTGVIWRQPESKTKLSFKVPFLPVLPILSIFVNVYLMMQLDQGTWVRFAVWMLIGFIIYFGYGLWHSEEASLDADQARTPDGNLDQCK
T2 sequence (P08183 whole entry): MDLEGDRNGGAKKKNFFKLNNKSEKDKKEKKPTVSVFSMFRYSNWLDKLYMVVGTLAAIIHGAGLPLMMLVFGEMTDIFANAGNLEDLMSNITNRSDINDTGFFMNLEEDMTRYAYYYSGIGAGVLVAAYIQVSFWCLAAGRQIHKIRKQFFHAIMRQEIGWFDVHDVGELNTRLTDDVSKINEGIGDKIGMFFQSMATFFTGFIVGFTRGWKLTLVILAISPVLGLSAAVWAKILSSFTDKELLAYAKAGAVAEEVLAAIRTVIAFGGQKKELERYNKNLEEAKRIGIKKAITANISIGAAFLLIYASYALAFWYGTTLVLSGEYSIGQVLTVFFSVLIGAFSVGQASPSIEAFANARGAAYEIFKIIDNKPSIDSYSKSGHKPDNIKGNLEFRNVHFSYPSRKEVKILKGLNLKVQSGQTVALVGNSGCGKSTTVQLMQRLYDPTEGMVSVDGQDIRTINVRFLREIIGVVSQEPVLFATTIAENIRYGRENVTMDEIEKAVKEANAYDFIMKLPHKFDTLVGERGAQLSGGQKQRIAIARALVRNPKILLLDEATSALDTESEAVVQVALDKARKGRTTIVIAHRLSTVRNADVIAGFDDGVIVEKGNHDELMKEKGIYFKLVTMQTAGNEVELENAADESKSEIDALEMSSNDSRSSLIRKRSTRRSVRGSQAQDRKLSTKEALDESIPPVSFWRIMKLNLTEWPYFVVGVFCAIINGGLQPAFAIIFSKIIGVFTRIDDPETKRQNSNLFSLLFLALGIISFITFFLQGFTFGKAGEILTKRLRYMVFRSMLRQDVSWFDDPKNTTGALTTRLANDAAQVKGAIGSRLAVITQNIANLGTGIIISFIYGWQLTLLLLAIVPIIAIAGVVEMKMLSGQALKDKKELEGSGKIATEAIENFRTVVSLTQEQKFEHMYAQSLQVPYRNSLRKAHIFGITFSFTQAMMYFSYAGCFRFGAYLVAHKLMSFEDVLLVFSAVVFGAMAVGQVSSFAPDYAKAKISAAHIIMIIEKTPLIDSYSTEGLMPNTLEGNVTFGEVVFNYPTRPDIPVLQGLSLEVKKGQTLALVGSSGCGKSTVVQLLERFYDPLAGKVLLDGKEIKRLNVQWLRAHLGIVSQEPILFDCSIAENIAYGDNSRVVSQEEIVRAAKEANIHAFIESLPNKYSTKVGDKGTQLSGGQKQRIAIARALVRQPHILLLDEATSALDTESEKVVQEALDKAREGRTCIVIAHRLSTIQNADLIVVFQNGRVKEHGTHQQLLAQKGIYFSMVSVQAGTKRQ

Molecule: N-methyl arginine [N-Me-Arg]
pIC50 (hCAT1 [1]; LLCPK-TREx-hCAT1 cells induced to express hCAT1): 3.7
IC50 (hCAT1 [1]): 190 µM
pKm (hCAT1 [2]): 3.8
Vmax (hCAT1 [2]; 5 minutes at room temperature): 3.9 μM/well
Km (hCAT1 [2]; 5 minutes at room temperature, specific uptake (+TET minus no TET)): 158 µM

Molecule: NCCCC[C@H](N)C(=O)O [Lysine, lysine]
IC50 (hCAT1 [1]): 140 µM

Molecule: NCCC[C@H](N)C(=O)O [Ornithine, ornithine]
IC50 (hCAT1 [1]): 73 µM

The remaining lines, values ahead:

IC50 (hCAT1 [1]): 83 µM
Molecule: N=C(N)NCCC[C@H](N)C(=O)O [Arginine, arginine]

PgP substrate status from apical to basolateral and basolateral to apical transport (PgP): substrate of PgP
Molecule: CC[C@]1(O)C[C@@H]2CN(CCc3c([nH]c4ccccc34)[C@@](C(=O)OC)(c3cc4c(cc3OC)N(C)[C@H]3[C@@](O)(C(=O)OC)[C@H](OC(C)=O)[C@]5(CC)C=CCN6CC[C@]43[C@@H]65)C2)C1 [^3H-vinblastine, vinblastine]
